Experimental data from patent publication US9428477B2, “Trans-2-decenoic acid derivative and drug containing same” (NIPPON ZOKI PHARMACEUTICAL CO., LTD., priority 2012, dated 2016).

Assays:
[1] = system: rats with paclitaxel-induced peripheral nerve disorder; assay: Rat peripheral nerve disorder induced by paclitaxel, von Frey test; format: in vivo; conditions: ip, test drug intraperitoneally, single dose, higher of values 1 and 5 hours after administration, mechanical stimulus of right hind limb, normal threshold 15, read-out: Recovery Rate of 50% Reaction Threshold Value
Procedure: The effects of the compounds of the present invention were evaluated for a peripheral nerve disorder which is a side effect induced by the administration of an anti-cancer agent paclitaxel, such as hyperesthesia including allodynia induced by mechanical stimuli, which is a severe pain induced by such tactile stimuli which usually cause no pains. The compound of the present invention was intraperitoneally administered to rats as a test drug to conduct a von Frey test.
Male SD rats of six weeks age (six rats per group) were used as experimental animals, and paclitaxel (2 mg/kg) was intraperitoneally administered every other day for four times in total to prepare rats with paclitaxel-induced peripheral nerve disorder. During the period of 18 to 25 days or during the period of 20 to 27 days after the initiation of paclitaxel administration, the test drug was intraperitoneally administered in a single dose of […], and the following von Frey test was conducted.
The rats of the above (1) were placed in a transparent acrylic cage with a wire-meshed floor and habituated for about three minutes, and the 50% reaction threshold values to the mechanical stimulus of right hind limb were measured before administration of the test drug and after 1 and 5 hours from the initiation of the administration.
The measurement was conducted using von Frey filaments (manufactured by North Coast Medical Inc.) in accordance with the methods of Chaplan, et al. (Journal of Neuroscience Methods, 53(1), 55-63, 1994) and Dixon, et al. (Annual Review of Pharmacology and Toxicology, 20, 441-462, 1980). […] The case where the rat escaped at the instance of removing the filament was also called positive. When the positive reaction was found, stimulus was applied similarly with a filament of one rank weaker, and in the absence of the reaction, stimulus was similarly applied with a filament of one rank stronger, and a point where the reaction changed from negative to positive or from positive to negative was called the first two reactions. Subsequently, stimuli were applied for continuously four times by the same up-down method. A 50% reaction threshold value to the mechanical stimulus was measured using the reaction to the six stimuli in total and then (mean value)±(standard error) for each group was calculated. Incidentally, when stimulus reached to a load of 15.0 g without positive reaction, or when positive reaction continued to a load of 0.4 g, 15.0 g or 0.25 g was adopted as each of 50% reaction threshold values. With regard to the higher 50% reaction threshold value between the 50% threshold values after 1 hour and 5 hours from administration of a test drug, a recovery rate (%) of the 50% reaction threshold value was calculated by the following expression in which 15 was taken as a normal threshold value.
Recovery rate (%) of 50% reaction threshold value=[(50% reaction threshold value after 1 hour or 5 hours from administration of test drug)−(50% reaction threshold value before administration of test drug)]/[(Normal threshold value)−(50% reaction threshold value before administration of test drug)]×100

MAP kinase (ERK 1/2) = assay: Activation (phosphorylation) of MAP kinase in cultured cerebral cortex nerve cells, Western immunoblotting; format: cell-based; conditions: 0.5 h; fetal rat cerebral cortex nerve cells; compound 250 μg/ml in 0.1% DMSO; 30 minutes; relative to control = 1.00; read-out: Ratio of pMAPK to MAPK
Procedure: With regard to the compounds of the present invention, the activation of MAP kinase (ERK 1/2) was measured in accordance with a Western immunoblotting in the following manner.
Nerve cells were dispersed from cerebral cortex of a fetal rat of 17 days age, and the nerve cells were cultured for one day in a Dulbecco's modified Eagle's medium (DMEM) containing 5% fetal bovine serum. The culture medium was exchanged with a serum-free medium (B27 supplemented Neurobasal; Invitrogen), and the nerve cells were cultured at the density of 20,000 to 40,000 cells/cm^2 in a polyornithine-coated culture dish.
After three days, the compound of the present invention was added, and the culture was continued for 30 minutes. Thereafter, the cells were recovered on ice using a solution containing a phosphatase inhibitor where Tris-HCl buffer was used as a base. The protein concentration of the resulting cell extract was quantified with a BCA Protein Assay Kit (Takara Bio Co., Ltd.), and a certain amount of the protein (3 μg for the measurement of MAP kinase and 5 μg for the measurement of phosphorylated MAP kinase) was subjected to polyacrylamide gel electrophoresis. The protein was transferred from the electrophoresed gel to a PVDF membrane, and Western immunoblotting was carried out using each of an anti-MAP kinase antibody (Cell Signaling Technology) and an anti-phosphorylated MAP kinase antibody (Cell Signaling Technology) of the primary antibody.
Subsequently, the reaction with an alkaline phosphatase-labeled anti-rabbit IgG antibody (Promega) of the secondary antibody was carried out, and the enzymatic activity was allowed to develop color, to measure MAP kinase (MAPK) and the phosphorylated MAP kinase (pMAPK).
Incidentally, each of the compounds of the present invention was dissolved in 0.1% DMSO to adjust its concentration to 250 μg/ml. As to the control, 0.1% DMSO was added.
The intensity of the concentration of the bands of eletrophoresed the gel was calculated and quantified using Image J (K. K. Bioarts). The numerical values for the MAPK when using the compounds of the present invention were each divided by the numerical value for the MAPK of the control, and the numerical values for the pMAPK when using the compounds of the present invention were divided by the numerical value for the pMAPK of the control, whereby a ratio of the MAPK when using each of the compounds of the present invention to the control, and a ratio of the pMAPK when using each of the compounds of the present invention to the control were obtained. Subsequently, the ratio of the pMAPK to the control obtained was divided by the ratio of the MAPK to the control to obtain a ratio of the pMAPK to the MAPK.

SMILES	change in vivo at 0.3 mg/kg [1]	fold induction at 250 µg/mL (MAP kinase (ERK 1/2))	melting point
CCCCCCC/C=C/C(=O)N1CCN(c2ccc(Cl)cc2)CC1 [Compound 41, 1-((E)-2-Decenoyl)-4-(4-chlorophenyl)piperazine]	81.5%		
CCCCCCC/C=C/C(=O)N1CCC(C)CC1 [Compound 6, 1-((E)-2-Decenoyl)-4-methylpiperidine]	33.8%	1.71	
CCCCCCC/C=C/C(=O)N1CCC(OC)CC1 [Compound 9, 1-((E)-2-Decenoyl)-4-methoxypiperidine]	35.6%		
CCCCCCC/C=C/C(=O)N1CCN(C)CC1 [Compound 19, 1-((E)-2-Decenoyl)-4-methylpiperazine]	19.8%		
CCCCCCC/C=C/C(=O)N1CCCCCC1 [Compound 32, 1-((E)-2-Decenoyl)azepane]	51.1%		
CCCCCCC/C=C/C(=O)N1CCC(CCC(=O)O)CC1 [Compound 36, 3-(1-((E)-2-Decenoyl)-4-piperidyl)propanoic acid]	42%		
CCCCCCC/C=C/C(=O)N1CCC(=O)CC1 [Compound 7, 1-((E)-2-decenoyl)piperidin-4-one]	45.2%	1.62	
CCCCCCC/C=C/C(=O)N1CCOCC1 [Compound 17, 4-((E)-2-Decenoyl)morpholine]	30.6%		
CCCCCCC/C=C/C(=O)N1CCC(CC(=O)O)CC1 [Compound 35, 2-(1-((E)-2-Decenoyl)-4-piperidyl)acetic acid]	41.2%		65 to 66 °C
CCCCCCC/C=C/C(=O)N1CCN(c2ccccc2Cl)CC1 [Compound 45, 1-((E)-2-Decenoyl)-4-(2-chlorophenyl)piperazine]	33.3%		
CCCCCCC/C=C/C(=O)N1CCN(CCCC(=O)O)CC1.Cl [Compound 40, 4-[4-[(E)-2-Decenoyl]piperazin-1-yl]butanoic acid hydrochloride]	61.6%		203 to 205 °C
CCCCCCC/C=C/C(=O)N1CCC(O)CC1 [Compound 8, 1-((E)-2-Decenoyl)-4-hydroxypiperidine]	49.7%		
CCCCCCC/C=C/C(=O)N1CCN(c2ccc(OC)cc2)CC1 [Compound 42, 1-((E)-2-Decenoyl)-4-(4-methoxyphenyl)piperazine]	45.8%		50 to 52 °C
CCCCCCC/C=C/C(=O)N1CCSCC1 [Compound 18, 4-((E)-2-decenoyl)thiomorpholine]	48.9%	1.28	
CCCCCCC/C=C/C(=O)N1CCCN(CCN(C)C)CC1 [Compound 34, 1-((E)-2-Decenoyl)-4-(2-dimethylaminoethyl)-[1,4]diazepane]	35.5%		
CCCCCCC/C=C/C(=O)N1CCC(c2ccccc2)CC1 [Compound 16, 1-((E)-2-Decenoyl)-4-phenylpiperidine]	38.6%		
CCCCCCC/C=C/C(=O)N1CCN(c2ccc(OCC(=O)O)cc2)CC1 [Compound 47, 2-[4-[4-((E)-2-Decenoyl)piperazin-1-yl]phenoxy]acetic acid]	54.5%		210 °C (dec.)

SMILES	change in vivo at 0.3 mg/kg [1]	fold induction at 250 µg/mL (MAP kinase (ERK 1/2))	melting point
CCCCCCC/C=C/C(=O)N1CCN(Cc2ccc(C(=O)O)cc2)CC1 [Compound 48, 4-[[4-((E)-2-Decenoyl)piperazin-1-yl]methyl]benzoic acid]	56.4%		114 to 116 °C
CCCCCCC/C=C/C(=O)N1CCN(CCN2CCCCC2)CC1 [Compound 24, 1-((E)-2-Decenoyl)-4-(2-piperidin-1-ylethyl)piperazine]	49.7%	2.58	
CCCCCCC/C=C/C(=O)N1CCN(c2ccc(C)cc2)CC1 [Compound 43, 1-((E)-2-Decenoyl)-4-(4-methylphenyl)piperazine]	31.3%		45 to 46 °C
CCCCCCC/C=C/C(=O)N1CCC[C@H]1C(=O)O [Compound 2, (S)-1-((E)-2-Decenoyl)pyrrolidine-2-carboxylic acid]	23.5%	1.28	
CCCCCCC/C=C/C(=O)N1CCN(CC(=O)O)CC1.Cl [Compound 39, [4-[(E)-2-Decenoyl]piperazin-1-yl]acetic acid hydrochloride]	16.6%		195 °C (dec.)
CCCCCCC/C=C/C(=O)N1CCC(C#N)CC1 [Compound 37, 1-((E)-2-Decenoyl)-4-cyanopiperidine]	22.4%		
CCCCCCC/C=C/C(=O)N1CCC(CCN(C)C)CC1 [Compound 15, 1-((E)-2-Decenoyl)-4-(2-dimethylaminoethyl)piperidine]	34.2%		
CCCCCCC/C=C/C(=O)N1CCCN(C)CC1 [Compound 33, 1-((E)-2-Decenoyl)-4-methyl-[1,4]diazepane]	33.4%		
CCCCCCC/C=C/C(=O)N1CCC(CN(CC)CC)CC1 [Compound 14, 1-((E)-2-Decenoyl)-4-diethylaminomethylpiperidine]	26%	2.08	
CCCCCCC/C=C/C(=O)N1CCN(c2ccccn2)CC1 [Compound 30, 1-((E)-2-Decenoyl)-4-(pyridin-2-yl)piperazine]	22.6%		
CCCCCCC/C=C/C(=O)N1CCN(c2ccc(F)cc2)CC1 [Compound 44, 1-((E)-2-Decenoyl)-4-(4-fluorophenyl)piperazine]	42.6%		
CCCCCCC/C=C/C(=O)N1CCN(c2ccc(N(C)C)cc2)CC1 [Compound 28, 1-((E)-2-Decenoyl)-4-(4-dimethylaminophenyl)piperazine]	20.3%		73 to 74 °C
CCCCCCC/C=C/C(=O)N1CCN(c2ncccn2)CC1 [Compound 31, 1-((E)-2-Decenoyl)-4-(pyrimidin-2-yl)piperazine]	22.9%		
CCCCCCC/C=C/C(=O)N1CCN(c2ccc(O)cc2)CC1 [Compound 46, 1-((E)-2-Decenoyl)-4-(4-hydroxyphenyl)piperazine]	53.7%		85 to 87 °C
CCCCCCC/C=C/C(=O)N1CCN(c2ccncc2)CC1 [Compound 29, 1-((E)-2-Decenoyl)-4-(pyridin-4-yl)piperazine]	42.8%		
CCCCCCC/C=C/C(=O)N1CCC(c2ccc(Cl)cc2)CC1 [Compound 38, 1-((E)-2-Decenoyl)-4-(4-chlorophenyl)piperidine]	55.5%		
